For test [1], the system named is HCV replicon I389luc-ubi-neo/NS3-3′/ET in ET (Huh-lucubineo-ET) cells. The experiment in a line: Replicon assay (Biological Example 2), luciferase readout. In kind it is cell-based. The settings on record: Hepatitis C virus. A digest of the protocol: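 EC50 values come from Hill fits of % inhibition of replicon-driven firefly luciferase, relative to no-compound wells. Compounds were serially diluted (10 points, 3-fold, 0.1 nM–50 μM final, 0.5% DMSO) onto ET replicon cells and read after 48 h.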

Test [2] concerns the target T1, HCV polymerase (Hepatitis C virus genotype 1b, UniProt Q9WMX2).
T1 construct: (His)6 (C); made in house; host or cells: XL-1 cells (E. coli, by own knowledge)
Nature of the test: Polymerase assay of Biological Example 1 (IC50 values of Table 3). In kind it is biochemical. The conditions noted are these: IC50 values of Table 3, polymerase assay of Biological Example 1; read-out: NS5B-enzyme3.

The mark [3] stands for this setting: ET cells, luciferase activity 48 hours after compound.

We go through 18 compounds from patent US9498483B2, “2,3,5-trisubstituted thiophene compounds and uses thereof” (priority 2010, dated 2016).

A value given as a limit tells only on which side of the number the result lay.

As to `O=C(O)c1sc(-c2ccc(Cl)cc2)cc1N1C(=O)CN(S(=O)(=O)c2ccc(N3C[C@H]4C[C@@H]3CO4)nc2)C[C@H]1C1CCCCC1` [Compound 274, 5-(4-Chloro-phenyl)-3-{(R)-2-cyclohexyl-4-[(1R,4R)-6-(2-oxa-5-aza-bicyclo[2.2.1]hept-5-yl)-pyridine-3-sulfonyl]-6-oxo-piperazin-1-yl}-thiophene-2-carboxylic acid], the values for the IC50 in test [1] (setting [3]) and in test [2] were no more than 100 nM and 1 nM, respectively.

With `CC(O)C1CCC(C2CCCCC2)N(c2cc(C#CC(C)(C)C)sc2C(=O)O)C1=O` (stereo not drawn) [Compound 316, 3-[6-Cyclohexyl-3-(1-hydroxy-ethyl)-2-oxo-piperidin-1-yl]-5-(3,3-dimethyl-but-1-ynyl)-thiophene-2-carboxylic acid], the IC50 in test [1] (setting [3]) was no more than 100 nM; in test [2], 3 nM.

As for `O=C(COc1ccccc1)N[C@@H]1CC(=O)N(c2cc(-c3ccccc3)sc2C(=O)O)[C@@H](C2CCCCC2)C1` [Compound 22, 3-[(2R,4S)-2-Cyclohexyl-6-oxo-4-(2-phenoxy-acetylamino)-piperidin-1-yl]-5-phenyl-thiophene-2-carboxylic acid], the IC50 in test [1] (setting [3]) was no less than 5000 nM; in test [2], 20 nM.

On to `CC(C)(C)C#Cc1cc(N2C(=O)CCC2C2CCCCC2)c(C(=O)O)s1` (stereo not drawn) [Compound 220, 3-(2-Cyclohexyl-5-oxo-pyrrolidin-1-yl)-5-(3,3-dimethyl-but-1-ynyl)-thiophene-2-carboxylic acid], for which the IC50 is 100 to 5000 nM in test [1] (between 100 nM and 5.0 uM); 15 nM in test [2].

For `COc1ccc(S(=O)(=O)N2CC(=O)N(c3cc(-c4ccccc4)sc3C(=O)O)C(C3CCCCC3)C2)cc1C(=O)O` (stereo not drawn) [Compound 29, 3-[4-(3-Carboxy-4-methoxy-benzenesulfonyl)-2-cyclohexyl-6-oxo-piperazin-1-yl]-5-phenyl-thiophene-2-carboxylic acid], the IC50 in test [1] (between 100 nM and 5.0 uM) is 100 to 5000 nM; in test [2], 1 nM.

As for `CC1CN(c2ccc(S(=O)(=O)N3CC(=O)N(c4cc(-c5ccccc5)sc4C(=O)O)C(C4CCCCC4)C3)cn2)CC(C)O1` (stereo not drawn) [Compound 87, 3-{2-Cyclohexyl-4-[6-(2,6-dimethyl-morpholin-4-yl)-pyridine-3-sulfonyl]-6-oxopiperazin-1-yl}-5-phenyl-thiophene-2-carboxylic acid], the values for the IC50 in test [1] (setting [3]) and in test [2] were no more than 100 nM and 5 nM, respectively.

Take `CC(C)(C)C#Cc1cc(N2C(=O)[C@@H](CC(O)CO)OC[C@H]2C2CCCCC2)c(C(=O)O)s1` (stereo partly drawn) [Compound 10, 3-[(2R,5R)-5-Cyclohexyl-2-(2,3-dihydroxy-propyl)-3-oxo-morpholin-4-yl]-5-(3,3-dimethyl-but-1-ynyl)-thiophene-2-carboxylic acid]: the IC50 in test [1] (setting [3]) was no more than 100 nM; in test [2], 3 nM.

Take `C[C@@H](O)CC[C@@]1(C)OC[C@@H](C2CCCCC2)N(c2cc(C#CC(C)(C)C)sc2C(=O)O)C1=O` [Compound 321, 3-[(2R,5R)-5-Cyclohexyl-2-((R)-3-hydroxy-butyl)-2-methyl-3-oxo-morpholin-4-yl]-5-(3,3-dimethyl-but-1-ynyl)-thiophene-2-carboxylic acid]: the values for the IC50 in test [1] (setting [3]) and in test [2] were no more than 100 nM and 2 nM, respectively.

As to `O=C(O)c1sc(-c2ccc(Cl)cc2)cc1N1C(=O)CN(S(=O)(=O)c2ccc(N3CCCOCC3)nc2)C[C@H]1C1CCCCC1` [Compound 200, 5-(4-Chloro-phenyl)-3-[(R)-2-cyclohexyl-4-(6-[1,4]oxazepan-4-yl-pyridine-3-sulfonyl)-6-oxo-piperazin-1-yl]-thiophene-2-carboxylic acid], the figures for the IC50 in test [1] (setting [3]) and in test [2] were no more than 100 nM and 1 nM, respectively.

For `CN(C)C1CCCN(c2ccc(S(=O)(=O)N3CC(=O)N(c4cc(-c5ccccc5)sc4C(=O)O)[C@H](C4CCCCC4)C3)cn2)C1` (stereo partly drawn) [Compound 155, 3-[(R)-2-Cyclohexyl-4-(3-dimethylamino-3,4,5,6-tetrahydro-2H-[1,2′]bipyridinyl-5′-sulfonyl)-6-oxo-piperazin-1-yl]-5-phenyl-thiophene-2-carboxylic acid], the IC50 was no more than 100 nM in test [1] (setting [3]) and 3 nM in test [2].

`Cc1ccc(-c2cc(N3C(=O)CN(S(=O)(=O)c4ccc(C)nc4)C[C@H]3C3CCCCC3)c(C(=O)O)s2)cc1` [Compound 302, 3-[(R)-2-Cyclohexyl-4-(6-methyl-pyridine-3-sulfonyl)-6-oxo-piperazin-1-yl]-5-p-tolyl-thiophene-2-carboxylic acid]: the IC50 was no more than 100 nM in test [1] (setting [3]) and 3 nM in test [2].

Turning to `CC(C)(C)OC(=O)N[C@H]1CCCN(c2ccc(S(=O)(=O)N3CC(=O)N(c4cc(-c5ccccc5)sc4C(=O)O)[C@H](C4CCCCC4)C3)cn2)C1` [Compound 159, 3-[(R)-4-((S)-3-tert-Butoxycarbonyl-amino-3,4,5,6-tetrahydro-2H-[1,2′]bipyridinyl-5′-sulfonyl)-2-cyclohexyl-6-oxo-piperazin-1-yl]-5-phenyl-thiophene-2-carboxylic acid], the IC50 in test [1] (between 100 nM and 5.0 uM) was 100 to 5000 nM; in test [2], 3 nM.

With `O=C(O)CCS(=O)(=O)N1CC(=O)N(c2cc(-c3ccccc3)sc2C(=O)O)C(C2CCCCC2)C1` (stereo not drawn) [Compound 41, 3-[4-(2-Carboxy-ethanesulfonyl)-2-cyclohexyl-6-oxo-piperazin-1-yl]-5-phenyl-thiophene-2-carboxylic acid], the IC50 in test [1] (setting [3]) was no less than 5000 nM; in test [2] it was 218 nM.

Regarding `CC1(O)CCN(c2ccc(S(=O)(=O)N3CC(=O)N(c4cc(-c5ccc(F)cc5)sc4C(=O)O)[C@H](C4CCCCC4)C3)cn2)C1` (stereo partly drawn) [Compound 288, 3-{(R)-2-Cyclohexyl-4-[6-(3-hydroxy-3-methyl-pyrrolidin-1-yl)-pyridine-3-sulfonyl]-6-oxo-piperazin-1-yl}-5-(4-fluoro-phenyl)-thiophene-2-carboxylic acid], the IC50 was no more than 100 nM in test [1] (setting [3]) and 2 nM in test [2].

For the compound `Cn1ccc2c(S(=O)(=O)N3CC(=O)N(c4cc(-c5ccccc5)sc4C(=O)O)C(C4CCCCC4)C3)cccc21` (stereo not drawn) [Compound 64, 3-[2-Cyclohexyl-4-(1-methyl-1H-indole-4-sulfonyl)-6-oxo-piperazin-1-yl]-5-phenyl-thiophene-2-carboxylic acid], the IC50 in test [1] (between 100 nM and 5.0 uM) is 100 to 5000 nM; in test [2] it was 31 nM.

Take `C[C@@H]1COCCN1c1ccc(S(=O)(=O)N2CC(=O)N(c3cc(-c4ccc(F)cc4)sc3C(=O)O)[C@H](C3CCCCC3)C2)cn1` [Compound 195, 3-{(R)-2-Cyclohexyl-4-[6-((R)-3-methyl-morpholin-4-yl)-pyridine-3-sulfonyl]-6-oxo-piperazin-1-yl}-5-(4-fluoro-phenyl)-thiophene-2-carboxylic acid]: the IC50 was no more than 100 nM in test [1] (setting [3]) and 3 nM in test [2].

On to `CC(C)S(=O)(=O)N1CC(=O)N(c2cc(-c3ccccc3)sc2C(=O)O)C(C2CCCCC2)C1` (stereo not drawn) [Compound 37, 3-[2-Cyclohexyl-6-oxo-4-(propane-2-sulfonyl)-piperazin-1-yl]-5-phenyl-thiophene-2-carboxylic acid], for which the IC50 was 100 to 5000 nM in test [1] (between 100 nM and 5.0 uM); 72 nM in test [2].

Take `O=C(O)c1sc(-c2ccccc2)cc1N1C(=O)CCC1C1CCCCC1` (stereo not drawn) [Compound 1, 3-(2-Cyclohexyl-5-oxo-pyrrolidin-1-yl)-5-phenyl-thiophene-2-carboxylic acid]: the IC50 in test [1] (between 100 nM and 5.0 uM) is 100 to 5000 nM; in test [2] it was 181 nM.
